These results are taken from ChEMBL document CHEMBL1125065, “Synthesis and anti-HIV activity of carbocyclic 2',3'-didehydro-2',3'-dideoxy 2,6-disubstituted purine nucleosides” (J Med Chem, 1990).

The structures appear in SMILES notation. Converted amounts (≈) assume the structure as drawn. Bounds are passed on as bounds.

The nature of data set [1]: Therapeutic index for the compound was determined (IC50/EC50). Conditions: read-out: TI.
Data set [2] concerns MT2. Put plainly: Effective concentration that increases formazan production in infected MT-2 cells. Type of data set: functional, cell-based. The note with it: Homo sapiens.
In data set [3] the test system is MT2. Put plainly: Inhibitory concentration that reduces formazan production in uninfected MT-2 cells. Conditions: Homo sapiens.
A further data set has as its system P388. Put plainly: Inhibitory concentration of compound for P-388 Leukemia cell culture. Conditions: Mus musculus, read-out: ED50 (the source's name). Format: functional.
In data set [4] the test system is CCRF-CEM. Put plainly: Inhibitory effect against synthesis of p24 gag protein in CEM cells. Format: functional, Homo sapiens.
The test system of data set [5] is CCRF-CEM. Description: Percent reduction in p24 gag expression in CEM cells. Format: functional, Homo sapiens.

In general, IC50 refers to the concentration at which inhibition is half-maximal. High values mean lower potency, low ones higher potency. Take `Nc1nc(N)c2ncn(C3C=CC(CO)C3)c2n1` (stereo not given): in data set [1], the selectivity ratio was above 26.6. The results for the EC50 with MT2 [2] and in the data set on P388 were 4.7 µg/mL (≈ 19.1 µM) and above 100 µg/mL, respectively. Besides, the half-maximal inhibitory concentration (IC50) in the data set with MT2 [3] was above 125 µg/mL.
Regarding `Nc1nc(N)c2nnn(C3C=CC(CO)C3)c2n1` (stereo not given), the EC50 in the data set on P388 is above 100 µg/mL.
On to `Nc1nc(O)c2nnn(C3C=CC(CO)C3)c2n1` (stereo not given), for which, in the data set with P388, the EC50 was determined as 4.5 µg/mL (≈ 18.1 µM).
For the compound `Nc1nc(Cl)c2ncn(C3CCC(CO)C3)c2n1` (stereo not given), the EC50 in the data set on MT2 [2] and with P388 was above 100 µg/mL in each case. Moreover, in the data set with MT2 [3], the IC50 is above 100 µg/mL.
As to `Nc1nc(O)c2nnn(C3CCC(CO)C3)c2n1` (stereo not given), the EC50 in the data set on P388 was found to be 51 µg/mL (≈ 204 µM).
On the same count and under the same terms, in the case of `Nc1nc(Cl)c2nnn(C3C=CC(CO)C3)c2n1` (stereo not given) it was 1 µg/mL (≈ 3.75 µM).
`Nc1nc(N)c2nnn(C3CCC(CO)C3)c2n1` (stereo not given): the EC50 with P388 is above 100 µg/mL.
Still for that read-out and setting: in the case of `Nc1nc(Cl)c2nnn(C3CCC(CO)C3)c2n1` (stereo not given) it was 18 µg/mL (≈ 67 µM).
Take `Nc1nc(Cl)c2ncn(C3C=CC(CO)C3)c2n1` (stereo not given): the selectivity ratio in data set [1] came to 17.3. Moreover, the EC50 with MT2 [2] worked out at 0.4 µg/mL (≈ 1.51 µM); in the data set with P388, 75 µg/mL (≈ 282 µM). The compound further came in with an IC50 in the data set with MT2 [3] of 6.97 µg/mL (≈ 26.2 µM).
`Nc1nc(O)c2ncn(C3CCC(CO)C3)c2n1` (stereo not given): the EC50 with MT2 [2] and in the data set with P388 was above 100 µg/mL in each case. In the data set on MT2 [3], this compound had an IC50 above 100 µg/mL.
For `Nc1nc(N)c2ncn(C3CCC(CO)C3)c2n1` (stereo not given), in data set [1], the selectivity ratio was above 5.9. Besides, the EC50 with MT2 [2] is 16.7 µg/mL (≈ 67.3 µM); in the data set with P388, 80 µg/mL (≈ 322 µM). In the data set on MT2 [3], this compound yielded an IC50 above 100 µg/mL.
Regarding `Nc1nc2c(ncn2[C@H]2C=C[C@@H](CO)C2)c(=O)[nH]1` [CARBOVIR], the selectivity ratio in data set [1] was 220. For the same compound, the results for the EC50 in the data set with MT2 [2] and in the data set with P388 were 0.19 µg/mL (≈ 0.768 µM) and above 100 µg/mL, respectively. Further, inhibition in the data set with MT2 [3] was half-maximal at 41.8 µg/mL (≈ 169 µM) (IC50). In the data set on CCRF-CEM [4], this compound came in with a p24 synthesis of 28 ng/mL. In the data set on CCRF-CEM [5], this compound yielded a Reduction above 99.97%.
`Nc1ccn([C@H]2CC[C@@H](CO)O2)c(=O)n1` [ZALCITABINE]: the selectivity ratio in data set [1] was found to be 152. Further, the EC50 with MT2 [2] worked out at 0.29 µg/mL (≈ 1.37 µM). The compound further displayed an IC50 in the data set on MT2 [3] of 44 µg/mL (≈ 208 µM).
`Cc1cn([C@H]2C[C@H](N=[N+]=[N-])[C@@H](CO)O2)c(=O)[nH]c1=O` [ZIDOVUDINE] registered a p24 synthesis with CCRF-CEM [4] of 32 ng/mL. This compound also displayed a Reduction in the data set on CCRF-CEM [5] above 99.96%.
